# Patent publication US20250085273A1, “NOVEL RAPID DRUG DISCOVERY FOR SEPSIS AND AGENTS FOR USE AS SEPSIS THERAPY” (priority 2023, published 2025)
# Read-outs that look alike come from different tables or passages of the source.
# What was measured:
# muscarinic M1 receptor = biological target: T1, muscarinic M1 receptor (Homo sapiens, UniProt P11229); conditions: at 10 μM; cited from earlier work
# T1 sequence (P11229 1-460): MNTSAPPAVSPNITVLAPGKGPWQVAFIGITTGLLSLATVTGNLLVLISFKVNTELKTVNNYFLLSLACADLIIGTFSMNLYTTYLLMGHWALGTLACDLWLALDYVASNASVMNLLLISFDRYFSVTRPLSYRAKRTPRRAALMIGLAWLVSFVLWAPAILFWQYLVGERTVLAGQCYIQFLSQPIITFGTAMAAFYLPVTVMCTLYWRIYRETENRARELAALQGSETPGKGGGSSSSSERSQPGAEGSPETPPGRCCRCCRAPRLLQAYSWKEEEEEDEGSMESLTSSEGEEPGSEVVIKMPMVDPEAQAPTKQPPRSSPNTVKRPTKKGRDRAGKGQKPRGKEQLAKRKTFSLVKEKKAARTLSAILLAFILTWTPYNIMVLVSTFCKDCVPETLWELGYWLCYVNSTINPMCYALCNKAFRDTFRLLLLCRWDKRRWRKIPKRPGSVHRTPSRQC
# [1] = system: 5-dpf zebrafish larvae challenged with P. aeruginosa LPS 60 μg/mL; assay type: in vivo, Danio rerio; conditions: compound 10 μM
# 5-HT2B = 5-HT2B (Homo sapiens, UniProt P41595); conditions: read-out: affinity (Ki) 5-HT2B; cited from earlier work
# [2] = system: zebrafish (4 dpf pre-treated, LPS exposure at 5-dpf) challenged with P. aeruginosa LPS 60 μg/mL; assay type: in vivo, Danio rerio
# Procedure, shortened: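 PTU-treated 4 dpf zebrafish embryos received a 24-hour drug pre-treatment at 28.5 °C, alongside an untreated parallel group, before challenge at 5 dpf with P. aeruginosa LPS at 60 μg/mL. Tail edema and mortality were scored at 6 and 24 h post exposure, followed by a neurobehavioral test.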
# [3] = system: 5-dpf zebrafish challenged with K. Pneumoniae LPS (45 μg/mL); assay: Challenge with K. Pneumoniae LPS (45 μg/mL), 5-dpf zebrafish; assay type: in vivo, Danio rerio
# Experimental: These tests followed the same methods described in the 5-dpf zebrafish confirmatory testing, but K. Pneumoniae LPS (45 μg/mL final in well concentration) was used instead of P. aeruginosa LPS.
# α1D = biological target: T2, α1D (Homo sapiens, UniProt P25100); conditions: read-out: affinity (Ki) α1D; cited from earlier work
# T2 sequence (P25100 1-572): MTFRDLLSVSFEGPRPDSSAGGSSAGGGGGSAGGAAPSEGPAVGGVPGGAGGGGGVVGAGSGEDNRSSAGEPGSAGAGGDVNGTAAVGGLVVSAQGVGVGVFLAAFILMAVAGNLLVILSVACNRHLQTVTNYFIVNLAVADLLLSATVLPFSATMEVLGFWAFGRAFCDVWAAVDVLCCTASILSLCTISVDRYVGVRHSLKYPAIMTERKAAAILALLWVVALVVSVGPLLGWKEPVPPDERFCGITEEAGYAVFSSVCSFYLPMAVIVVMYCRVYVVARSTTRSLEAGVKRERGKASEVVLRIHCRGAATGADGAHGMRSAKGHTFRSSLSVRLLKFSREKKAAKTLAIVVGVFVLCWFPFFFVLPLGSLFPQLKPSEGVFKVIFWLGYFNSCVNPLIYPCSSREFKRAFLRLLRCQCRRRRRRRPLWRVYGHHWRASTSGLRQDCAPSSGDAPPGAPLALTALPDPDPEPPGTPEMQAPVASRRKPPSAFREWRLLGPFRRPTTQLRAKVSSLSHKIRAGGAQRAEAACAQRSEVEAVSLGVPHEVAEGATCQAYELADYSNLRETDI
# histamine H1 receptor = histamine H1 receptor (Homo sapiens, UniProt P35367); conditions: read-out: affinity for histamine H1 receptor; cited from earlier work
# noradrenergic α1A = biological target: T3, noradrenergic α1A (Homo sapiens, UniProt P35348); conditions: read-out: affinity (Ki) α1A; cited from earlier work
# T3 sequence (P35348 1-466): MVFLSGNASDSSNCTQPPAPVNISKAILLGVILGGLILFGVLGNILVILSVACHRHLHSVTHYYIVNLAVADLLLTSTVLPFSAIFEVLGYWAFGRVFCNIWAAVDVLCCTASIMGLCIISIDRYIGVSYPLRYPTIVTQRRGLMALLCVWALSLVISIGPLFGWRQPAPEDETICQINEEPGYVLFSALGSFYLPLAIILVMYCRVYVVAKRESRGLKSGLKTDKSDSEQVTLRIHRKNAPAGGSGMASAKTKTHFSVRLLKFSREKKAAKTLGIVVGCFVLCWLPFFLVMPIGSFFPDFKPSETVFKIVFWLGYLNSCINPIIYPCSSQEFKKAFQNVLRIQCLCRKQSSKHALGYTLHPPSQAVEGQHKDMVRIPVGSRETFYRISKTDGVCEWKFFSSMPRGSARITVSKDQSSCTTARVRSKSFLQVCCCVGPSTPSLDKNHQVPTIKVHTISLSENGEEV
# D3 = D3 (Homo sapiens, UniProt P35462); conditions: read-out: affinity (Ki) D3; cited from earlier work
# [4] = number of n = 16 fish, 24-hour 10 μM drug pre-treatment
# [5] = number of n = 16 fish, no 24-hour pre-treatment
# 5-HT2B, sequence (P41595 whole entry, species assumed): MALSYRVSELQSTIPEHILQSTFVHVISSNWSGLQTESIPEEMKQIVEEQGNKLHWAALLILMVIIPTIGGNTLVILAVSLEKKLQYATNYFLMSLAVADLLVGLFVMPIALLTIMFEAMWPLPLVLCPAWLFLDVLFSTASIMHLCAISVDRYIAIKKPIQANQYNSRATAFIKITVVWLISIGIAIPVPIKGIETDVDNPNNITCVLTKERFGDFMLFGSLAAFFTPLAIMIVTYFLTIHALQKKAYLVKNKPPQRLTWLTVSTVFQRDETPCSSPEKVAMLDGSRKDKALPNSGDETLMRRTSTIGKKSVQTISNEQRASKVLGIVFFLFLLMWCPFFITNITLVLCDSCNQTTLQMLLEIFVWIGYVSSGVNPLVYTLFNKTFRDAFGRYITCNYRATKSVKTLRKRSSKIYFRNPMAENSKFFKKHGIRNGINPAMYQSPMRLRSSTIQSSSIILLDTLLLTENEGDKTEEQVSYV
# histamine H1 receptor, sequence (P35367 whole entry, species assumed): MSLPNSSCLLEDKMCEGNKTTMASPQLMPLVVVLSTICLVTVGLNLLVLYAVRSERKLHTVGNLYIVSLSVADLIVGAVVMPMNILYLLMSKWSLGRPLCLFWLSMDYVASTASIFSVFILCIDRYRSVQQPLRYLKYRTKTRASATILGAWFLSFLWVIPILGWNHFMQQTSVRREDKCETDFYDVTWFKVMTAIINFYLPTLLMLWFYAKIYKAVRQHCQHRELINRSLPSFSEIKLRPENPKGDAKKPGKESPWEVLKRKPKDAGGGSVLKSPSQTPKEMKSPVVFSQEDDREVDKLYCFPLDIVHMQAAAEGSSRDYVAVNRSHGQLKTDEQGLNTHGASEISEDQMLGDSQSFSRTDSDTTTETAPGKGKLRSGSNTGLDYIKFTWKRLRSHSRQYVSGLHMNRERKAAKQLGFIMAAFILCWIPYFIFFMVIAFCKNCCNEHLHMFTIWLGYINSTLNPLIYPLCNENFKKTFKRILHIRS
# D3, sequence (P35462 whole entry): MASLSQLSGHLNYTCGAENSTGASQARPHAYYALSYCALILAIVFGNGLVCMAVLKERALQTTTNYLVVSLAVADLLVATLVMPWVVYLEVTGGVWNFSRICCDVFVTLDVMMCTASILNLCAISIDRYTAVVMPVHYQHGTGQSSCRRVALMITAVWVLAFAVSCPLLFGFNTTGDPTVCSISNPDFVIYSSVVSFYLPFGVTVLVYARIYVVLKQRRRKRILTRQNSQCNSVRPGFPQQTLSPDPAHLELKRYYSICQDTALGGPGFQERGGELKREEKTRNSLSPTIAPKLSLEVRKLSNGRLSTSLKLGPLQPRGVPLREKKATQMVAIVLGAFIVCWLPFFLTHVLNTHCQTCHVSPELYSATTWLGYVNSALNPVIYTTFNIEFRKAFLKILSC
structure (smiles),measurement,setting,value
"O=c1ccc2ccc(OCCCCN3CCN(c4cccc5sccc45)CC3)cc2[nH]1 [Compound 45, Brexpiprazole]","inhibition, muscarinic M1 receptor",muscarinic M1 receptor,67%
same,5 dpf Embryos Percent Rescue (Mort + Tail Edema),[1]; 5-dpf larvae,94%
same,rescue of tail edema and mortality (sepsis rescue rate) at 5-dpf,[1],94%
same,rescue of tail edema and mortality (sepsis rescue rate) at 5-dpf,[1]; listed as brexpiprazole,100%
same,Ki,5-HT2B,1.9 nM
same,Pre-Treatment Rescue (n = 16),"[2]; 24-hour drug pre-treatment, P. aeruginosa LPS 60 μg/mL",94%
same,No Pre-Treatment Rescue (n = 16),"[2]; no 24-hour drug pre-treatment, P. aeruginosa LPS 60 μg/mL",94%
same,"24 hour Tail Edema, No-Drug Pretreatment","[2]; number of n = 16 fish, 10 μM drug with LPS 60 μg/mL, no 24-hour pre-treatment",1 fish
same,"24 Hour Mortality and Tail Edema, Drug Pretreatment",[2]; [4],1 fish
same,"24 Hour Mortality, Drug Pretreatment",[2]; [4],1 fish
same,"24 hour Tail Edema, Drug Pretreatment","[2]; number of n = 16 fish, 24-hour 10 μM drug pre-treatment before LPS 60 μg/mL",0 fish
same,"24 Hour Mortality and Tail Edema, No-Drug Pretreatment",[2]; [5],1 fish
same,"24 Hour Mortality, No Drug Pretreatment",[2]; [5],0 fish
same,rescue of tail edema and mortality,[3],100%
same,Ki,α1D,2.6 nM
same,Ki,histamine H1 receptor,19 nM
same,Ki,noradrenergic α1A,3.8 nM
same,Ki,D3,1.1 nM
